Legend:
ALK I1171N/D1203N = ALK I1171N/D1203N (Homo sapiens (Human), UniProt Q9UM73, D1203N/I1171N); test: Biochemical kinase assay, ALK I1171N/D1203N; conditions: apparent inhibitory constant, kinase domain, Morrison equation; read-out: ALK-I1171N-D1203N Ki^app
Experimental: (§1) First, 250 nL of compound dissolved in DMSO (100-fold of the desired concentration) was dispensed into a 384-well plate. A 12.5 μL substrate solution containing ATP (2 mM) and fluorogenic phosphorylation substrate AQT0101 ([…] for ALK and ROS, AssayQuant) or AQT0104 (26 μM for TRKB, AssayQuant) in buffer (50 mM HEPES pH 7.5, […], 0.5 mM EGTA, 10 mM MgCl2) was added and mixed thoroughly. Then, a 12.5 μL kinase solution containing ALK (1.5 nM, Carna, 08-518), ALK I1171N/D1203N (4 nM, SignalChem, custom-made), ROS1 (0.6 nM, Carma, 08-163), ROS1-G2032R (0.5 nM, SignalChem, R14-121BG), or TRKB-wt (1.5 nM, SignalChem, N17-11G) kinase domains in buffer ([…] pH 7.5, 0.01% Brij-[…], 0.4 mg/mL BSA, 0.5 mM EGTA, and 10 mM MgCl2) was added and mixed thoroughly. The plate was sealed and read by SpectraMax Paradigm at λ=485 nm every 2 minutes for 120 minutes at 30° C. Initial rates of reaction (v) were calculated from the change in fluorescence intensity over time during the initial, linear portion of the reaction. Finally, apparent inhibitory constants (Ki^app) were determined from regression of v and I (inhibitor concentration) to Morrison Equation (E=enzyme concentration): […]
(§2) Compound potency can be interpreted by binning Ki^app values against the targets: bin A for high potency, Ki^app<50 nM; bin B for medium potency, 50 nM≤Ki^app<500 nM; and bin C for low potency, Ki^app≥500 nM. […] “nd” means not determined.

TRKB-wt = TRKB-wt (Homo sapiens (Human), UniProt Q16620); test: Biochemical kinase assay, TRKB-wt; conditions: apparent inhibitory constant, kinase domain, Morrison equation; read-out: TRKB-wt Ki^app
Chain of TRKB-wt (Q16620 538-807): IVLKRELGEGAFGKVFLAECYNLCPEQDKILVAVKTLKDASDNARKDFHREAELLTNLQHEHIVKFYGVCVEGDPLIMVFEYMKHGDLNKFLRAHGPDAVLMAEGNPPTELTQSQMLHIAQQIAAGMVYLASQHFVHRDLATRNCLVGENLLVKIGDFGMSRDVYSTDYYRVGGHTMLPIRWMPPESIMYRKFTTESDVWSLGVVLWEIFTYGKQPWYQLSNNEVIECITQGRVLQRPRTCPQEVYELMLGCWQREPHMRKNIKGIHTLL
Experimental: as §1, §2

Ba/F3 EML4-ALK v1 I1171N = Ba/F3 EML4-ALK v1 I1171N (Homo sapiens (Human), UniProt Q9HC35+Q9UM73, I1171N); test: Ba/F3 cell proliferation assay, EML4-ALK v1 I1171N; type: cell-based; conditions: for IC50: Ba/F3 stable cells, 72 hours, CellTiter-Glo; for ETV6-TRKB / EML4-ALK v1 I1171N: TRKB selectivity, ratio of Ba/F3 IC50 values
Chain of Ba/F3 EML4-ALK v1 I1171N (Q9UM73 other isoform, or with tags, fused parts or gaps I1171N): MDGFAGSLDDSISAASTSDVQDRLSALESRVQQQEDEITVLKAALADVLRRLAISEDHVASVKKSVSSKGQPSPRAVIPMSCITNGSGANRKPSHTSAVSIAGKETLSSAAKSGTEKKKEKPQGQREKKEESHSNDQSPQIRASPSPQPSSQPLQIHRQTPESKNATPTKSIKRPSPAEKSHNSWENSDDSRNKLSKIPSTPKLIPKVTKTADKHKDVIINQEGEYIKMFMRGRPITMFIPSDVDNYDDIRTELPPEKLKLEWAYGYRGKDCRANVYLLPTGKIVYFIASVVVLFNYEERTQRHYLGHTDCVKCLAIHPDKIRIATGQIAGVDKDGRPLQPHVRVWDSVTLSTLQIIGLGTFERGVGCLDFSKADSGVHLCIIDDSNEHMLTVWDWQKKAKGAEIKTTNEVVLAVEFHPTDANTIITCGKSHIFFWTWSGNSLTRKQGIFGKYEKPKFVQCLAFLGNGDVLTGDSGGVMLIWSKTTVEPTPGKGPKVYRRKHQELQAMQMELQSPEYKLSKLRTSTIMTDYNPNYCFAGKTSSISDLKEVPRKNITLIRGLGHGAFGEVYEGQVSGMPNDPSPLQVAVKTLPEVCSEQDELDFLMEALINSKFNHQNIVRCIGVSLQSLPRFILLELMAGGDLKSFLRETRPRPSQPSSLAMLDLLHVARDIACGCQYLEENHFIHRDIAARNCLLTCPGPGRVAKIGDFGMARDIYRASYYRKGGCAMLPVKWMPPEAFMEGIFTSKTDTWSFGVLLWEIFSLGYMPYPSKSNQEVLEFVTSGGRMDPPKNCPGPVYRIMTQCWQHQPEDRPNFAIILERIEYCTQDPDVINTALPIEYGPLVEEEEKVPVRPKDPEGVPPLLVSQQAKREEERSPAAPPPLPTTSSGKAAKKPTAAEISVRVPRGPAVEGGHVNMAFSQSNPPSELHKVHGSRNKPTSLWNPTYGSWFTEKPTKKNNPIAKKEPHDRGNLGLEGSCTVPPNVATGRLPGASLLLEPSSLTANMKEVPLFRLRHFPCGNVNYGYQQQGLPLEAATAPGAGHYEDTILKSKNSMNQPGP
Method in brief: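 Ba/F3 cells stably transformed with retroviral EML4-ALK v1 I1171N, selected by IL-3 withdrawal and puromycin, grown IL-3-free. Compounds added as 3-fold dilution series, 72 h incubation; viability by CellTiter-Glo luminescence. IC50 from percent inhibition by four-parameter logistic fit, binned A/B/C.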

[1] = target: Ba/F3 EML4-ALK v1 I1171N/D1203N (Homo sapiens (Human), UniProt Q9HC35+Q9UM73, D1203N/I1171N); test: Ba/F3 cell proliferation assay, EML4-ALK v1 I1171N/D1203N; type: cell-based; conditions: for IC50: Ba/F3 stable cells, 72 hours, CellTiter-Glo
Chain of Ba/F3 EML4-ALK v1 I1171N/D1203N (Q9UM73 other isoform, or with tags, fused parts or gaps I1171N/D1203N): as the sequence (Q9UM73 other isoform, or with tags, fused parts or gaps I1171N) above, with D642N counted along it
Method in brief: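 Ba/F3 cells made IL-3-independent by retroviral EML4-ALK v1 I1171N/D1203N and selected with puromycin, then treated with 3-fold compound dilutions for 72 h. Viability by CellTiter-Glo luminescence; IC50 from four-parameter logistic fit.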

Ba/F3 ETV6-TRKB = Ba/F3 ETV6-TRKB (Homo sapiens, UniProt Q16620); test: Ba/F3 cell proliferation assay, ETV6-TRKB; type: cell-based; conditions: Ba/F3 stable cells, 72 hours, CellTiter-Glo; read-out: ETV6-TRKB IC50
Chain of Ba/F3 ETV6-TRKB (Q16620 32-822 limits assumed, change not shown): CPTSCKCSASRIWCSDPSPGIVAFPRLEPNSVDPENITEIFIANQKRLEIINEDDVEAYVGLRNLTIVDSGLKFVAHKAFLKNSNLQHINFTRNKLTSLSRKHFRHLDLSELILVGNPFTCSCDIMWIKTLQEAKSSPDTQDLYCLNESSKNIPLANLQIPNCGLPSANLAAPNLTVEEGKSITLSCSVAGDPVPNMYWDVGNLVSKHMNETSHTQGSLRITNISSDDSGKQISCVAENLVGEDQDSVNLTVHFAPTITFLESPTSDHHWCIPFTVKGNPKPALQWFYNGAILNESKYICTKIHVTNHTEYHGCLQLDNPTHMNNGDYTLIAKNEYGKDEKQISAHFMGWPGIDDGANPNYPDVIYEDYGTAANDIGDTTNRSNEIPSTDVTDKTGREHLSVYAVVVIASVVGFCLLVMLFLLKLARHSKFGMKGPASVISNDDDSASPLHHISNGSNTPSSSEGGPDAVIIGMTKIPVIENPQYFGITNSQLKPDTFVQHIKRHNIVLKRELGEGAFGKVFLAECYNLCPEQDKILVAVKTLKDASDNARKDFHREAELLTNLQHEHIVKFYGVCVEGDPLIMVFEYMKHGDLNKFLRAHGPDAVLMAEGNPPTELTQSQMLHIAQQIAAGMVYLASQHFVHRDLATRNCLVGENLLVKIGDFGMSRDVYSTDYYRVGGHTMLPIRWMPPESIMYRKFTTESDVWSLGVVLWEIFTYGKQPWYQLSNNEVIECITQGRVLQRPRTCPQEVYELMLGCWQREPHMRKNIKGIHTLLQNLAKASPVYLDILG
Method in brief: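 Ba/F3 cells retrovirally transduced with ETV6-TRKB and selected for IL-3-independent growth with puromycin were treated with 3-fold compound dilutions for 72 h. Viability read by CellTiter-Glo luminescence; IC50 from percent inhibition by four-parameter logistic fit.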

[2] = TRKB selectivity, ratio of Ba/F3 IC50 values

Chain of ALK I1171N/D1203N (Q9UM73 1116-1392 I1171N/D1203N): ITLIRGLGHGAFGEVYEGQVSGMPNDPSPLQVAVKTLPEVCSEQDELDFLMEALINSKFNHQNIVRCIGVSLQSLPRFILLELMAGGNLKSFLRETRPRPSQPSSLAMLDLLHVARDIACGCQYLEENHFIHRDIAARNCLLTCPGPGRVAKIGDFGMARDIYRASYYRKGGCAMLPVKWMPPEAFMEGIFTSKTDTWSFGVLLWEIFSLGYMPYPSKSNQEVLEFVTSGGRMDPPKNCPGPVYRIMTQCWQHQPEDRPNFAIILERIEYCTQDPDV

SMILES	Ki (ALK I1171N/D1203N)	Ki (TRKB-wt)	IC50 (Ba/F3 EML4-ALK v1 I1171N)	IC50 [1]	IC50 (Ba/F3 ETV6-TRKB)	ETV6-TRKB / EML4-ALK v1 I1171N (Ba/F3 EML4-ALK v1 I1171N)	ETV6-TRKB / EML4-ALK v1 I1171N/D1203N [1, 2]	Selectivity for Ba/F3 EML4-ALK v1 I1171N-D1203N IC50 over Ba/F3 ETV6-TRKB IC50 ([1]; TRKB selectivity, ratio of Ba/F3 IC50 values, Table 6 bins)
CSc1nn(CC2CC2)c2c1Cc1cn(C)nc1-c1ccc(F)cc1[C@@H](C)Oc1cc-2cnc1N [Example 56, (R)-3-(cyclopropylmethyl)-16-fluoro-10-methyl-19-methyl-5-(methylthio)-20-oxa-3,4,10,11,23-pentaazapentacyclo[19.3.1.0^2,^6.0^8,^12.0^13,^18]pentacosa-1(25),2(6),4,8,11,13,15,17,21,23-decaen-22-ylamine]	0.05 to 0.5 µM	≥ 0.5 µM		0.05 to 0.5 µM	> 0.5 µM		C (bin C for moderate selectivity, ratio≥1 but<10)	
C[C@H]1Oc2cc(cnc2N)-c2c(c(C(=O)N3CCCC3)nn2CC2CC2)Cc2cn(C)nc2-c2ccc(F)cc21 [Example 11, {(R)-22-amino-3-(cyclopropylmethyl)-16-fluoro-10-methyl-19-methyl-20-oxa-3,4,10,11,23-pentaazapentacyclo[19.3.1.0^2,^6.0^8,^12.0^13,^18]pentacosa-1(24),2(6),4,8,11,13,15,17,21(25),22-decaen-5-yl}(1-pyrrolidinyl)methanone]	< 0.05 µM	0.05 to 0.5 µM		0.05 to 0.5 µM	> 0.5 µM		B (bin B for high selectivity, ratio≥10-fold but<30)	
C[C@H]1Oc2cc(cnc2N)-c2c(c(C(=O)N3CCC(F)(F)C3)nn2CC2CC2)Cc2cn(C)nc2-c2ccc(F)cc21 [Example 12, {(R)-22-amino-3-(cyclopropylmethyl)-16-fluoro-10-methyl-19-methyl-20-oxa-3,4,10,11,23-pentaazapentacyclo[19.3.1.0^2,^6.0^8,^12.013,18]pentacosa-1(24),2(6),4,8,11,13,15,17,21(25),22-decaen-5-yl}(3,3-difluoro-1-pyrrolidinyl)methanone]	< 0.05 µM	≥ 0.5 µM		0.05 to 0.5 µM	> 0.5 µM		C (bin C for moderate selectivity, ratio≥1 but<10)	
Cc1cc2n(n1)-c1ccc(F)cc1[C@@H](C)Oc1cc(cnc1N)-c1c(nn(C)c1C#N)C2=O [Example 19, (R)-22-amino-16-fluoro-4-methyl-10,19-dimethyl-7-oxo-20-oxa-4,5,11,12,23-pentaazapentacyclo[19.3.1.0^2,^6.0^8,^12.0^13,^18]pentacosa-1(24),2,5,8, 10,13,15,17,21(25),22-decaene-3-carbonitrile]	< 0.05 µM	< 0.05 µM		0.0001 to 0.05 µM	0.05 to 0.5 µM		B (bin B for high selectivity, ratio≥10-fold but<30)	
C[C@H]1Oc2cc(cnc2N)-c2c(c(C(=O)N3CC(F)(F)C3)nn2CC2CC2)Cc2cn(C)nc2-c2ccc(F)cc21 [Example 13, {(R)-22-amino-3-(cyclopropylmethyl)-16-fluoro-10-methyl-19-methyl-20-oxa-3,4,10,11,23-pentaazapentacyclo[19.3.1.0^2,^6.0^8,^12.0^13,^18]pentacosa-1(24),2(6),4,8,11,13,15, 17,21(25),22-decaen-5-yl}(3,3-difluoro-1-azetidinyl)methanone]	< 0.05 µM	0.05 to 0.5 µM		0.05 to 0.5 µM	> 0.5 µM		C (bin C for moderate selectivity, ratio≥1 but<10)	
Cc1cc2n(n1)-c1ccc(F)cc1[C@@H](C)Oc1cc(cnc1N)-c1c(c(C(=O)N(C)C)nn1CC1CC1)C2 [Example 42, N,N-dimethyl-(R)-22-amino-3-(cyclopropylmethyl)-16-fluoro-10,19-dimethyl-20-oxa-3,4,11,12,23-pentaazapentacyclo[19.3.1.0^2,^6.0^8,^12.0^13,^18]pentacosa-1(24),2(6),4,8,10,13,15,17,21(25),22-decaene-5-carboxamide]	< 0.05 µM	≥ 0.5 µM		0.05 to 0.5 µM	> 0.5 µM		A (bin A for very high selectivity, ratio≥30-fold)	

Further lines, with some results ahead:

Ki (ALK I1171N/D1203N)	Ki (TRKB-wt)	IC50 (Ba/F3 EML4-ALK v1 I1171N)	IC50 [1]	IC50 (Ba/F3 ETV6-TRKB)	SMILES	ETV6-TRKB / EML4-ALK v1 I1171N (Ba/F3 EML4-ALK v1 I1171N)	ETV6-TRKB / EML4-ALK v1 I1171N/D1203N [1, 2]	Selectivity for Ba/F3 EML4-ALK v1 I1171N-D1203N IC50 over Ba/F3 ETV6-TRKB IC50 ([1]; TRKB selectivity, ratio of Ba/F3 IC50 values, Table 6 bins)
< 0.05 µM	0.05 to 0.5 µM	0.0001 to 0.05 µM	0.0001 to 0.05 µM	> 0.5 µM	C[C@H]1Oc2cc(cnc2N)-c2c(c(C(=O)N(C)C)nn2C2CCC2)Cc2cn(C)nc2-c2ccc(F)cc21 [Example 35, N,N-dimethyl-(R)-22-amino-3-cyclobutyl-16-fluoro-10-methyl-19-methyl-20-oxa-3,4,10,11,23-pentaazapentacyclo[19.3.1.0^2,^6.0^8,^12.0^13,^18]pentacosa-1(24),2(6),4,8,11,13,15,17,21(25),22-decaene-5-carboxamide]	A (bin A for very high selectivity, ratio≥30-fold)	A (bin A for very high selectivity, ratio≥30-fold)	
< 0.05 µM	0.05 to 0.5 µM	0.0001 to 0.05 µM	0.0001 to 0.05 µM	> 0.5 µM	Cc1ocnc1-c1nn(CC2CC2)c2c1Cc1cccnc1-c1ccc(F)cc1[C@@H](C)Oc1cc-2cnc1N [Example 3, (20R)-3-(cyclopropylmethyl)-17-fluoro-20-methyl-5-(5-methyl-1,3-oxazol-4-yl)-21-oxa-3,4,12,24-tetraazapentacyclo[20.3.1.0^2,^6.0^8,^13.0^14,^19]hexacosa-1(25),2(6),4,8(13),9,11,14,16,18,22(26),23-undecaen-23-amine]	A (bin A for very high selectivity, ratio≥30-fold)	B (bin B for high selectivity, ratio≥10-fold but<30)	
< 0.05 µM	≥ 0.5 µM	0.05 to 0.5 µM	0.0001 to 0.05 µM	> 0.5 µM	C[C@H]1Oc2cc(cnc2N)-c2c(c(C(=O)N(C)C)nn2CC2CC2)Cc2cccnc2-c2c(F)cc(F)cc21 [Example 45, N,N-dimethyl-(R)-23-amino-3-(cyclopropylmethyl)-15,17-difluoro-20-methyl-21-oxa-3,4,12,24-tetraazapentacyclo[20.3.1.0^2,^6.0^8,^13.0^14,^19]hexacosa-1(25),2(6),4,8(13),9,11,14,16, 18,22(26),23-undecaene-5-carboxamide]	B (bin B for high selectivity, ratio≥10-fold but<30)	A (bin A for very high selectivity, ratio≥30-fold)	
< 0.05 µM	≥ 0.5 µM	0.0001 to 0.05 µM	0.0001 to 0.05 µM	> 0.5 µM	C[C@H]1Oc2cc(cnc2N)-c2c(c(C(=O)N(C)C)nn2CC2CC2)Cc2cn(C)nc2-c2c(F)cc(F)cc21 [Example 32, N,N-dimethyl-(R)-22-amino-3-(cyclopropylmethyl)-14,16-difluoro-10-methyl-19-methyl-20-oxa-3,4,10,11,23-pentaazapentacyclo[19.3.1.0^2,^6.0^8,^12.0^13,^18]pentacosa-1(24),2(6),4,8,11,13,15,17,21(25),22-decaene-5-carboxamide]	A (bin A for very high selectivity, ratio≥30-fold)	A (bin A for very high selectivity, ratio≥30-fold)	
< 0.05 µM	< 0.05 µM		0.0001 to 0.05 µM	0.0001 to 0.05 µM	CCn1nc(C(=O)N(C)C)c2c1-c1cnc(N)c(c1)O[C@H](C)c1cc(F)ccc1-c1ncccc1C2 [Example 43, N,N-dimethyl-(R)-23-amino-3-ethyl-17-fluoro-20-methyl-21-oxa-3,4,12,24-tetraazapentacyclo[20.3.1.0^2,^6.0^8,^13.0^14,^19]hexacosa-1(25),2(6),4,8(13),9,11,14,16,18,22(26),23-undecaene-5-carboxamide]		B (bin B for high selectivity, ratio≥10-fold but<30)	BB (bin BB for the selectivity with the ratio≥10-fold but<30)

— patent US20250326769A1, “HETEROAROMATIC MACROCYCLIC ETHER CHEMOTHERAPEUTIC AGENTS” (Nuvalent, Inc., priority 2022, published 2025)
